From PubChem BioAssay AID1918952 (Molecular Pharmacology Branch, DTP, NCI, 2023)

Test system: LG0703-F948-PDC complex spheroid viability
Assay: Anticancer human tumor LG0703-F948-PDC patient-derived lung adenocarcinoma cell line growth inhibition
Conditions: for IC50: curve of first compound; for viability, T/C: stronger effect = lower value
Outline: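 Complex spheroids of tumor cells with HUVEC and human MSCs, exposed to iadademstat combined with other agents. Each agent tested in half-log steps from near clinical Cmax (else 10 microM top), DMSO ≤0.25%.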

[1] = second compound 0.1 µM, first compound 0.000316 µM
[2] = second compound 0.1 µM, first compound 0.001 µM
[3] = second compound 0.1 µM, first compound 0.00316 µM
[4] = second compound 0.1 µM, first compound 0.01 µM
[5] = second compound 0.1 µM, first compound 0.0316 µM
[6] = second compound 0.1 µM, first compound 0.1 µM
[7] = second compound 0.316 µM, first compound 0.000316 µM
[8] = second compound 0.316 µM, first compound 0.001 µM
[9] = second compound 0.316 µM, first compound 0.00316 µM
[10] = second compound 0.316 µM, first compound 0.01 µM
[11] = second compound 0.316 µM, first compound 0.0316 µM
[12] = second compound 0.316 µM, first compound 0.1 µM
[13] = second compound 1 µM, first compound 0.000316 µM
[14] = second compound 1 µM, first compound 0.001 µM
[15] = second compound 1 µM, first compound 0.00316 µM
[16] = second compound 1 µM, first compound 0.01 µM
[17] = second compound 1 µM, first compound 0.0316 µM
[18] = second compound 1 µM, first compound 0.1 µM
[19] = second compound 3.16 µM, first compound 0.000316 µM
[20] = second compound 3.16 µM, first compound 0.001 µM
[21] = second compound 3.16 µM, first compound 0.00316 µM
[22] = second compound 3.16 µM, first compound 0.01 µM
[23] = second compound 3.16 µM, first compound 0.0316 µM
[24] = second compound 3.16 µM, first compound 0.1 µM
[25] = second compound 10 µM, first compound 0.000316 µM
[26] = second compound 10 µM, first compound 0.001 µM
[27] = second compound 10 µM, first compound 0.00316 µM
[28] = second compound 10 µM, first compound 0.01 µM
[29] = second compound 10 µM, first compound 0.0316 µM
[30] = second compound 10 µM, first compound 0.1 µM
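Also: spheroids exposed to agents for seven days before readout.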
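For viability, T/C in this document: 100% = DMSO vehicle control wells as normalization base.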

Row | SMILES | IC50 (second compound 0.1 µM) | IC50 (second compound 0.316 µM) | IC50 (second compound 1 µM) | IC50 (second compound 3.16 µM) | IC50 (second compound 10 µM) | viability, T/C [3] | viability, T/C [4] | viability, T/C [5] | viability, T/C [6] | viability, T/C [9] | viability, T/C [10] | viability, T/C [11] | viability, T/C [12] | viability, T/C [15] | viability, T/C [16] | viability, T/C [17] | viability, T/C [18] | viability, T/C [21] | viability, T/C [22] | viability, T/C [23] | further results
1 | CC(C)CC(NC(=O)C(Cc1ccccc1)NC(=O)c1cnccn1)B(O)O (stereo not given) + NC1CC1c1ccc(-c2cccc(O)c2)cc1 | < 0.316 nM | < 0.316 nM | < 0.316 nM | < 0.316 nM | < 0.316 nM | 0.04% | 0.06% | 0.03% | 1.07% | 0.54% | 0.02% | 0.31% | 0.14% | 0.85% | 0.07% | 0.95% | 0.99% | 0.05% | 0.39% | 0.09% | viability, T/C [1]: 6.46%; viability, T/C [2]: 0.12%; viability, T/C [7]: 7.13%; viability, T/C [8]: 0.36%; viability, T/C [13]: 4.36%; viability, T/C [14]: 0.11%; viability, T/C [19]: 4.22%; viability, T/C [20]: 0.74%; viability, T/C [24]: 0.14%; viability, T/C [25]: 1.18%; viability, T/C [26]: 1.11%; viability, T/C [27]: 0.6%; viability, T/C [28]: 1.43%; viability, T/C [29]: 0.9%; viability, T/C [30]: 0.98%
2 | CC(C)CC(NC(=O)CNC(=O)c1cc(Cl)ccc1Cl)B1OC(=O)CC(CC(=O)O)(C(=O)O)O1 (stereo not given) + NC1CC1c1ccc(-c2cccc(O)c2)cc1 | 3.82 nM | 3.08 nM | 2.83 nM | 3.13 nM | 2.58 nM | 57.3% | 9.87% | 1.39% | 0.35% | 47.9% | 10.8% | 1.68% | 0.68% | 44.7% | 8.76% | 0.48% | 0.25% | 49.6% | 6.24% | 0.66% | viability, T/C [1]: 91.2%; viability, T/C [2]: 102%; viability, T/C [7]: 102%; viability, T/C [8]: 96.5%; viability, T/C [13]: 90.9%; viability, T/C [14]: 106%; viability, T/C [19]: 93.9%; viability, T/C [20]: 103%; viability, T/C [24]: 0.21%; viability, T/C [25]: 83.2%; viability, T/C [26]: 96.4%; viability, T/C [27]: 41.5%; viability, T/C [28]: 3.08%; viability, T/C [29]: 0.14%; viability, T/C [30]: 0.2%
3 | COc1cc(Nc2ncc3c(n2)-c2ccc(Cl)cc2C(c2c(F)cccc2OC)=NC3)ccc1C(=O)O + NC1CC1c1ccc(-c2cccc(O)c2)cc1 | 199 nM | 177 nM | 198 nM | 188 nM | 181 nM | 91.5% | 85.6% | 91.6% | 76.1% | 95.3% | 93.8% | 80.8% | 67.6% | 106% | 100% | 85.6% | 70.5% | 95.5% | 111% | 94.2% | viability, T/C (second compound 0.1 µM, first compound 0.316 µM): 32.1%; viability, T/C (second compound 0.1 µM, first compound 1 µM): 3.58%; viability, T/C (second compound 0.316 µM, first compound 0.316 µM): 33.5%; viability, T/C (second compound 0.316 µM, first compound 1 µM): 3.78%; viability, T/C (second compound 1 µM, first compound 0.316 µM): 36.3%; viability, T/C (second compound 1 µM, first compound 1 µM): 3.36%; viability, T/C [24]: 70.5%; viability, T/C (second compound 3.16 µM, first compound 0.316 µM): 33.1%; viability, T/C (second compound 3.16 µM, first compound 1 µM): 4.2%; viability, T/C [27]: 113%; viability, T/C [28]: 97.6%; viability, T/C [29]: 94.1%; viability, T/C [30]: 64.8%; viability, T/C (second compound 10 µM, first compound 0.316 µM): 34.8%; viability, T/C (second compound 10 µM, first compound 1 µM): 6.35%
